Consider eight compounds from ChEMBL document CHEMBL1128203, “Synthesis and structure-activity relationships of acetylcholinesterase inhibitors: 1-benzyl-4-[(5,6-dimethoxy-1-oxoindan-2-yl)methyl]piperidine hydrochloride and related compounds” (J Med Chem, 1995).

This assay deals with T1, Acetylcholinesterase (Mus musculus, UniProt P21836).
T1 sequence (P21836 whole entry): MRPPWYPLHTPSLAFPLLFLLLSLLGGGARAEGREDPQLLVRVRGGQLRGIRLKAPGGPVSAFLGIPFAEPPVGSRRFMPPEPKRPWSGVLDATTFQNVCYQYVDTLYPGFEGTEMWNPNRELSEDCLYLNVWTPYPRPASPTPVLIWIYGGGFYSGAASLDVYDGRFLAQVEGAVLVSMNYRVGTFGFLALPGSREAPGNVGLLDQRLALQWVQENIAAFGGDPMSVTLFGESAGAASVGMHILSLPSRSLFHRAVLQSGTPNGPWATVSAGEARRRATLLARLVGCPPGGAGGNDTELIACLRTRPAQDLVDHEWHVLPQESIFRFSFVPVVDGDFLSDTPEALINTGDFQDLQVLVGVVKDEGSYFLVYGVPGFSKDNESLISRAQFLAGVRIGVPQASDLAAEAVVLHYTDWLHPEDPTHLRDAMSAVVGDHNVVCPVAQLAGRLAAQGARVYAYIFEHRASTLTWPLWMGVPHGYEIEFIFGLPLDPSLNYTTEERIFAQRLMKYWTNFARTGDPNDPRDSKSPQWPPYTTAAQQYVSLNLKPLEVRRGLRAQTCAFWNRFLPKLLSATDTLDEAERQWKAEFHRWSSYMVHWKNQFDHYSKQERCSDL
Description: Inhibitory activity against acetylcholinesterase

Broadly, the IC50 is the midpoint of a concentration-inhibition curve. Higher therefore signals lower potency. As to `COc1ccc2c(c1OC)CC(CC1CCN(Cc3ccccc3)CC1)C2=O` (stereo not drawn), the IC50 amounted to 20 nM.

For `COc1cc2c(cc1OC)C(=O)C(CC1CCN(Cc3cccc(C)c3)CC1)C2` (stereo not drawn), inhibition was half-maximal at 2 nM (IC50). `COc1cc2c(cc1OC)C(=O)/C(=C\C1CCN(Cc3ccccc3)CC1)C2`: the midpoint of inhibition, the IC50, lay at 13 nM. `COc1ccc2c(c1OC)C(=O)C(CC1CCN(Cc3ccccc3)CC1)C2` (stereo not drawn) yielded an IC50 of 85 nM. In turn, `O=C1c2ccccc2CC1CCC1CCN(Cc2ccccc2)CC1` (stereo not drawn) gave an IC50 of 230 nM. For `CNC(=O)Oc1ccc2c(c1)[C@]1(C)CCN(C)[C@@H]1N2C` [PHYSOSTIGMINE], the IC50 was found to be 0.68 nM. Regarding `COc1cc2c(cc1OC)C(=O)C(CCCC1CCN(Cc3ccccc3)CC1)C2` (stereo not drawn), the IC50 amounted to 1.5 nM.

The compound `COc1ccc(OC)c2c1CC(CC1CCN(Cc3ccccc3)CC1)C2=O` (stereo not drawn) returned an IC50 of 36 nM.
